Laboratory results taken from patent US12448377B2, “Heterocyclic compound” (Takeda Pharmaceutical Company Limited, priority 2019, dated 2025).

How the values were obtained:
[1] = target: T1, human orexin type 2 receptor (Homo sapiens, UniProt O43614); assay: Measurement of orexin type 2 receptor agonist activity (calcium fluorescence, CHO cells forcibly expressing human OX2 receptor); format: cell-based; settings: compound at 3 μM, DMSO = 0%, orexin A (human) 10 nM = 100%
T1 construct: expressed in transfected cells
T1 sequence (O43614 1-444): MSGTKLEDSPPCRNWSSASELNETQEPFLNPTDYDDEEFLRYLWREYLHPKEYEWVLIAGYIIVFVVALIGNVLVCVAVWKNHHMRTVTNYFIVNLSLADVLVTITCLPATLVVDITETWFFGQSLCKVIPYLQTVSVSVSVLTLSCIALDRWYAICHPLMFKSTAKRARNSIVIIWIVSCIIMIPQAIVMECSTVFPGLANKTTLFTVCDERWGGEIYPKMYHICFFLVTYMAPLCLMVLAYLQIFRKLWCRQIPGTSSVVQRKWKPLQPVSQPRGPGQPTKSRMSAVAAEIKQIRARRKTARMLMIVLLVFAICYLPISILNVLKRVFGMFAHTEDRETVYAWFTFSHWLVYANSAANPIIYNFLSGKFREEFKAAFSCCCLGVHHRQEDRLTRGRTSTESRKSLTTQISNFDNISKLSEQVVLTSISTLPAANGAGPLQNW
Procedure, shortened: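 Agonism measured as Fluo-4 calcium fluorescence in CHO-K1 cells stably expressing human OX2 receptor, loaded 30 min at 37° C then 30 min at room temperature with probenecid. Signal recorded about 2 min 40 sec after compound; activity (%) normalised to DMSO (0%) and 10 nM human orexin A (100%).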

cynomolgus monkeys = assay: Evaluation of wake-promoting effects in cynomolgus monkeys (EEG/EMG/EOG); format: in vivo, cynomolgus monkey; settings: s.c., at ZT12, 4 h after administration
Experimental: The wake-promoting effects were evaluated by measuring the electroencephalogram (EEG), electromyogram (EMG) and electrooculogram (EOG) in cynomolgus monkeys. Under isoflurane anesthesia (1-5%, Pfizer Japan Inc., Tokyo, Japan), male cynomolgus monkeys (2-3 years old, Hamri Co., Ltd., Ibaraki, Japan) were surgically implanted with radio-telemetry transmitters (TL10M3-D70-EEE, Data Sciences International Inc., MN, USA). EEG leads were stereotaxically positioned at the parietal area and secured to the cranium with stainless-steel screws in contact with the dura. […] Bilateral EMG leads were implanted into the back cervical muscles. After the surgery, each monkey was given penicillin (100,000 units/head, i.m., Meiji Seika Pharma Co., Ltd., Tokyo, Japan), buprenorphine (0.02 mg/kg, i.m., Otsuka Pharmaceutical Co., Ltd., Tokyo, Japan) and prednisolone (1 mg/kg, s.c., Kyoritsu Seiyaku Co., Ltd., Tokyo, Japan) daily for one week. After at least a 1-month recovery period in home cages, the monkeys were habituated to the recording chamber (an acrylic cage 60W×55D×75H (cm)) located in a soundproof, electrically shielded room. After confirming that the monkeys slept sufficiently in the experimental room, the cortical EEG, EMG and EOG signals were recorded using Dataquest ART software (Data Sciences International Inc., MN, USA). The signals were semi automatically scored in 20 sec epochs by a sleep scoring system (SleepSign, Kissei Comtec Co., Ltd., Nagano, Japan). This preliminary scoring was visually inspected and corrected if necessary. Test compound (0.1, 0.3, 1 or 10 mg/kg, Table 4) dissolved in a mixed solution containing 5% DMSO, 5% Cremophor EL, 20% PEG400 and 70% soluplus (1% (w/v)), or vehicle (i.e., a mixed solution containing 5% DMSO, 5% Cremophor EL, 20% PEG400 and 70% soluplus (1% (w/v))) was administered subcutaneously (s.c.) to the cynomolgus monkeys at ZT12 in a volume of 0.5 mL/kg in a pre-post design. The EEG, EMG and EOG recordings were performed for 4 h after the compound administration. The time spent in wakefulness for 4 h after administration (% of vehicle treatment) was calculated by using SleepSign.

SD rats = assay: Evaluation of wake-promoting effects in SD rats (EEG/EMG); format: in vivo, rat; settings: s.c., 1 mg/kg, at ZT5, 3 hr after administration
Experimental: The wake-promoting effects were evaluated by measuring the electroencephalogram (EEG) and electromyogram (EMG) in SD rats (Crl:CD(SD), CHARLES RIVER LABORATORIES JAPAN, Kanagawa, Japan.) using chronic experiment telemetry automatic measurement system (PhysioTel® and PONEMAH™, Data Sciences International Inc., Minnesota, U.S.A.). Under pentobarbital sodium anesthesia (50 mg/kg, intraperitoneal, Somnopentyl®, Kyoritsu Seiyaku, Tokyo, Japan), […] male SD rats were surgically implanted with a transmitter. Bilateral EEG leads were positioned at the parietal area in contact with the dura and fixed to the cranium with dental cement. Bilateral EMG leads were fixed to the back cervical muscles. The transmitter was implanted under the skin of the back, and the head skin was sutured. After recovery for at least 1 week, the cortical EEG and EMG signals in SD rats were recorded using a high-end data acquisition and real-time analysis system (PONEMAH™). The signals were automatically scored in 4 sec epochs by a sleep scoring system (SleepSign®, Kissei Comtec Co., Ltd.). Test compound (1 or 10 mg/kg, Table 3) dissolved in a mixed solution containing 10% DMSO, 10% Cremophor EL, 20% PEG400 and 60% H2O, or vehicle (i.e., a mixed solution containing 10% DMSO, 10% Cremophor EL, 20% PEG400 and 60% H2O) was administered subcutaneously (s.c.) to the SD rats at zeitgeber time (ZT) 5 (when the start time of the light cycle was ZT0) in a volume of 5 mL/kg. The EEG and EMG recordings were performed for 3 hr after the compound administration. The time spent in wakefulness for 3 hr after administration (% of vehicle treatment) was calculated by using SleepSign.

Row | SMILES | OX2R agonist activity (3 μM, %) [1] [%] | further results
1 | Cc1ccc2n(c1=O)C(COC1CCC(c3ccccc3)CC1)C(NS(C)(=O)=O)CC2 [Example 6, rel-N-[(3S,4R)-7-methyl-6-oxo-4-({[(1s,4S)-4-phenylcyclohexyl]oxy}methyl)-1,3,4,6-tetrahydro-2H-quinolizin-3-yl]methanesulfonamide] | 92 | Wakefulness time (% of vehicle treatment) (Mean, n = 2) (cynomolgus monkeys; 0.3 mg/kg): 352.87 % of vehicle treatment
2 | CCC1CCC(OCC2C(NS(C)(=O)=O)CCc3ccc(C)c(=O)n32)CC1 [Example 9, rel-N-[(3S,4R)-4-({[(1s,4S)-4-ethylcyclohexyl]oxy}methyl)-7-methyl-6-oxo-1,3,4,6-tetrahydro-2H-quinolizin-3-yl]methanesulfonamide] | 68 | Wakefulness time (% of vehicle treatment) (Mean, n = 2) (cynomolgus monkeys; 0.3 mg/kg): 521.43 % of vehicle treatment
3 | CCCC1CCC(OCC2C(NS(=O)(=O)C3CC3)CCc3ccc(C)c(=O)n32)CC1 [Example 78, rel-N-[(3S,4R)-7-methyl-6-oxo-4-({[(1r,4S)-4-propylcyclohexyl]oxy}methyl)-1,3,4,6-tetrahydro-2H-quinolizin-3-yl]cyclopropanesulfonamide] | 88 | Wakefulness time (% of vehicle treatment) (Mean, n = 2) (SD rats): 130.53 % of vehicle treatment
4 | Cc1ccccc1C1CCC(OCC2C(NS(=O)(=O)C3CC3)CCc3ccc(C)c(=O)n32)CC1 (racemic) [Example 20, rac-N-[(3S,4R)-7-methyl-4-({[(1s,4S)-4-(2-methylphenyl)cyclohexyl]oxy}methyl)-6-oxo-1,3,4,6-tetrahydro-2H-quinolizin-3-yl]cyclopropanesulfonamide] | 97 | 
5 | Cc1cccc(C2CCC(OCC3C(NS(=O)(=O)C4CC4)CCc4ccc(C)c(=O)n43)CC2)c1 (racemic) [Example 25, rac-N-[(3S,4R)-7-methyl-4-({[(1s,4S)-4-(3-methylphenyl)cyclohexyl]oxy}methyl)-6-oxo-1,3,4,6-tetrahydro-2H-quinolizin-3-yl]cyclopropanesulfonamide] | 92 | 
6 | Cc1cccc(C2CCC(OCC3C(NS(=O)(=O)N(C)C)CCc4ccc(C)c(=O)n43)CC2)c1 (racemic) [Example 32, rac-N,N-dimethyl-N′-[(3S,4R)-7-methyl-4-({[(1s,4S)-4-(3-methylphenyl)cyclohexyl]oxy}methyl)-6-oxo-1,3,4,6-tetrahydro-2H-quinolizin-3-yl]sulfuric diamide] | 81 | 
7 | CCC(O)C1CCC(OCC2C(NS(C)(=O)=O)CCc3ccc(C)c(=O)n32)CC1 (racemic) [Example 58, N-[(3SR,4RS)-4-({[4-(1-hydroxypropyl)cyclohexyl]oxy}methyl)-7-methyl-6-oxo-1,3,4,6-tetrahydro-2H-quinolizin-3-yl]methanesulfonamide] | 95 | 

Now from value to molecule, other results behind:

Row | OX2R agonist activity (3 μM, %) [1] [%] | SMILES | further results
8 | 99 | CC#CC1CCC(OCC2C(NS(=O)(=O)CC)CCc3ccc(C)c(=O)n32)CC1 [Example 147, rel-N-[(3S,4R)-7-methyl-6-oxo-4-({[(1s,4S)-4-(prop-1-yn-1-yl)cyclohexyl]oxy}methyl)-1,3,4,6-tetrahydro-2H-quinolizin-3-yl]ethanesulfonamide] | Wakefulness time (% of vehicle treatment) (Mean, n = 2) (cynomolgus monkeys; 1 mg/kg): 389.64 % of vehicle treatment
9 | 87 | Cc1ccc2n(c1=O)C(COC1CCC(C3CC3)CC1)C(NS(=O)(=O)C1CC1)CC2 [Example 113, rel-N-[(3S,4R)-4-({[(1s,4S)-4-cyclopropylcyclohexyl]oxy}methyl)-7-methyl-6-oxo-1,3,4,6-tetrahydro-2H-quinolizin-3-yl]cyclopropanesulfonamide] | Wakefulness time (% of vehicle treatment) (Mean, n = 2) (cynomolgus monkeys; 0.1 mg/kg): 380.66 % of vehicle treatment
10 | 97 | CC#CC1CCC(OCC2C(NS(=O)(=O)C3CC3)CCc3ccc(C)c(=O)n32)CC1 [Example 148, rel-N-[(3S,4R)-7-methyl-6-oxo-4-({[(1s,4S)-4-(prop-1-yn-1-yl)cyclohexyl]oxy}methyl)-1,3,4,6-tetrahydro-2H-quinolizin-3-yl]cyclopropanesulfonamide] | Wakefulness time (% of vehicle treatment) (Mean, n = 2) (cynomolgus monkeys; 1 mg/kg): 324.87 % of vehicle treatment
11 | 94 | CCS(=O)(=O)NC1CCc2ccc(C)c(=O)n2C1COC1CCC(C2CC2)CC1 [Example 112, rel-N-[(3S,4R)-4-({[(1s,4S)-4-cyclopropylcyclohexyl]oxy}methyl)-7-methyl-6-oxo-1,3,4,6-tetrahydro-2H-quinolizin-3-yl]ethanesulfonamide] | Wakefulness time (% of vehicle treatment) (Mean, n = 2) (cynomolgus monkeys; 0.1 mg/kg): 671.65 % of vehicle treatment
12 | 98 | Cc1ccc2n(c1=O)C(COC1CCC(C3CC3)CC1)C(NS(C)(=O)=O)CC2 [Example 111, rel-N-[(3S,4R)-4-({[(1s,4S)-4-cyclopropylcyclohexyl]oxy}methyl)-7-methyl-6-oxo-1,3,4,6-tetrahydro-2H-quinolizin-3-yl]methanesulfonamide] | Wakefulness time (% of vehicle treatment) (Mean, n = 2) (SD rats): 126.37 % of vehicle treatment
13 | 96 | CCOC1CCC(OCC2C(NS(C)(=O)=O)CCc3ccc(C)c(=O)n32)CC1 [Example 145, rel-N-[(3S,4R)-4-({[(1s,4S)-4-ethoxycyclohexyl]oxy}methyl)-7-methyl-6-oxo-1,3,4,6-tetrahydro-2H-quinolizin-3-yl]methanesulfonamide] | Wakefulness time (% of vehicle treatment) (Mean, n = 2) (cynomolgus monkeys; 10 mg/kg): 277.67 % of vehicle treatment
14 | 99 | CCCCC1CCC(OCC2C(NS(C)(=O)=O)CCc3ccc(C)c(=O)n32)CC1 (racemic) [Example 80, rac-N-[(3S,4R)-4-({[(1r,4S)-4-butylcyclohexyl]oxy}methyl)-7-methyl-6-oxo-1,3,4,6-tetrahydro-2H-quinolizin-3-yl]methanesulfonamide] | 
15 | 91 | C/C=C\C1CCC(OCC2C(NS(C)(=O)=O)CCc3ccc(C)c(=O)n32)CC1 (racemic) [Example 110, rac-N-{(3S,4R)-7-methyl-6-oxo-4-[({(1s,4S)-4-[(1Z)-prop-1-en-1-yl]cyclohexyl}oxy)methyl]-1,3,4,6-tetrahydro-2H-quinolizin-3-yl}methanesulfonamide] | 
